Some test systems named below: SK-MEL-5; UACC-257; RPMI-8226; OVCAR-4; SNB-19; SK-MEL-2; TK-10; Malme-3M; HCC 2998; A498; OVCAR-8; K562; SN12C; SF-539; EKVX; HOP-92; ACHN; HL-60; NCI-H226; KM12.
Assay in all cases: NCI anticancer screen, dose series, 48 h

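These data come from cells grown in 96-well plates and exposed to compound for 48 hours at five concentrations. GI50 = concentration required for 50% inhibition of growth.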 Calls of active or inactive are those of the source. No stated cut-off is given here; in the data, active = GI50 up to about 1.1 µM and inactive = higher.

With `Cc1ccc(-c2cs/c(=N\c3ccccc3)n2NC(=O)c2ccncc2)cc1`, the GI50 in the assay on SK-MEL-5 was 18.7 µM (inactive); in the assay on UACC-257, 37.3 µM (inactive); in the assay with RPMI-8226, 22.6 µM (inactive); in the assay with OVCAR-4, 36.9 µM (inactive); with SNB-19, 46.8 µM (inactive); with SK-MEL-2 it was 28.5 µM (inactive). In addition, the GI50 with TK-10 is > 54.7 µM (inactive); with Malme-3M it was 43.3 µM (inactive); in the assay with HCC 2998 it was 75.2 µM (inactive); in the assay on A498 it was > 75.2 µM (inactive); with OVCAR-8 it was 25.8 µM (inactive); in the assay with K562, 15 µM (inactive). The GI50 with SN12C is 45.2 µM (inactive); in the assay with SF-539, 69 µM (inactive); with EKVX, 37.3 µM (inactive); in the assay on HOP-92 it was 88.5 µM (inactive); with ACHN it was 35.3 µM (inactive); in the assay on HL-60, 19.4 µM (inactive). For the same molecule, the GI50 with NCI-H226 was 28.4 µM (inactive); in the assay with KM12, 31.4 µM (inactive).

Take `COc1cc2c(cc1O)C1Cc3ccc(OC)c(O)c3C(C2)N1C` (stereo not given): the GI50 in the assay with SK-MEL-5, in the assay on UACC-257, in the assay on RPMI-8226, with OVCAR-4, in the assay on SNB-19 and with SK-MEL-2 was > 100 µM (inactive) each time. Further, the GI50 with TK-10, in the assay on Malme-3M, in the assay on HCC 2998, in the assay on A498, in the assay on OVCAR-8 and in the assay on SN12C was > 100 µM (inactive) each time. Also, the GI50 in the assay with SF-539 is > 100 µM (inactive); in the assay with EKVX, > 100 µM (inactive); in the assay with HOP-92, 17.5 µM (inactive); in the assay on ACHN it was > 100 µM (inactive); in the assay on HL-60, > 100 µM (inactive); with NCI-H226 it was > 100 µM (inactive). Moreover, the GI50 in the assay with KM12 is > 100 µM (inactive).

For the molecule `COc1ccc(/C=N/N=C(\N)NO)c(OC)c1OC`, the GI50 in the assay on SK-MEL-5 was 24.6 µM (inactive); in the assay on RPMI-8226 it was 31.6 µM (inactive); in the assay on OVCAR-4, 53.7 µM (inactive); in the assay with SNB-19, > 100 µM (inactive); in the assay on SK-MEL-2 it was 25.6 µM (inactive); in the assay on TK-10, 71.1 µM (inactive). In addition, the GI50 with Malme-3M was 26.5 µM (inactive); in the assay with HCC 2998, 17.2 µM (inactive); in the assay on A498, 26.7 µM (inactive); in the assay with OVCAR-8, 15 µM (inactive); with K562 it was 23.2 µM (inactive); in the assay with SN12C, 34.4 µM (inactive). Besides, the GI50 is 25.2 µM (inactive) with SF-539; 16.6 µM (inactive) in the assay with EKVX; 11.1 µM (inactive) with HOP-92; 21.2 µM (inactive) in the assay with ACHN; 23.1 µM (inactive) with HL-60; 23.4 µM (inactive) in the assay with NCI-H226. Also, the GI50 with KM12 is 4.69 µM (inactive).

As to `CCOC(=O)C(=O)Nc1ccccc1C`, the GI50 in the assay with SK-MEL-5, in the assay with RPMI-8226, in the assay with OVCAR-4, with SNB-19, in the assay with SK-MEL-2 and in the assay on TK-10 was > 100 µM (inactive) each time. Further, the GI50 with Malme-3M, with HCC 2998, with A498, in the assay on OVCAR-8, in the assay with K562 and in the assay on SN12C was > 100 µM (inactive) in each case. Also, the GI50 is > 100 µM (inactive) with SF-539; > 100 µM (inactive) with EKVX; > 100 µM (inactive) in the assay with HOP-92; > 100 µM (inactive) in the assay with ACHN; 29.4 µM (inactive) in the assay with HL-60; > 100 µM (inactive) in the assay with NCI-H226.

For the molecule `CCCCOC(=O)/C(CC(=O)C=C(C)C)=N\NS(=O)(=O)c1ccc(C)cc1`, the GI50 in the assay with SK-MEL-5, in the assay with UACC-257, in the assay with RPMI-8226, in the assay with OVCAR-4, in the assay with SNB-19 and in the assay on SK-MEL-2 was > 100 µM (inactive) throughout. The GI50 in the assay with TK-10, with Malme-3M, with HCC 2998, with A498, with OVCAR-8 and in the assay on K562 was > 100 µM (inactive) throughout. The GI50 in the assay with SN12C, with SF-539, with EKVX, with HOP-92, in the assay on ACHN and in the assay on HL-60 was > 100 µM (inactive) in each case. For the same molecule, the GI50 in the assay with NCI-H226 and in the assay with KM12 was > 100 µM (inactive) in each case.

As for `O=C1Cc2ccccc2N1/N=C\c1ccc([N+](=O)[O-])cc1`, the GI50 with SK-MEL-5, in the assay on UACC-257, in the assay with RPMI-8226, with OVCAR-4, in the assay on SNB-19 and in the assay with SK-MEL-2 was > 100 µM (inactive) each time. Further, the GI50 with TK-10, with Malme-3M, in the assay on HCC 2998, in the assay on A498, in the assay with OVCAR-8 and in the assay on K562 was > 100 µM (inactive) each time. In addition, the GI50 with SF-539, with EKVX, with HOP-92, with ACHN, in the assay on HL-60 and in the assay with NCI-H226 was > 100 µM (inactive) each time. The GI50 in the assay on KM12 was > 100 µM (inactive).

`[N-]=[N+]=C1C(=O)C2CC3CC(C2)CC1C3`: the GI50 in the assay with SK-MEL-5, with UACC-257, with RPMI-8226, in the assay on OVCAR-4, in the assay with SNB-19 and in the assay with SK-MEL-2 was > 100 µM (inactive) throughout. Also, the GI50 in the assay with TK-10, in the assay with Malme-3M, with HCC 2998, in the assay with A498, with OVCAR-8 and in the assay with K562 was > 100 µM (inactive) throughout. Further, the GI50 in the assay with SN12C, in the assay on SF-539, with EKVX, in the assay with HOP-92, in the assay on ACHN and in the assay with HL-60 was > 100 µM (inactive) throughout. Also, the GI50 in the assay with NCI-H226 and in the assay on KM12 was > 100 µM (inactive) in each case.

Take `CCOC(=O)[C@]12C3C=CC(C3)C1C(=O)C1OC12` (stereo not given in full): the GI50 with SK-MEL-5, with UACC-257, in the assay on RPMI-8226, with OVCAR-4, with SNB-19 and in the assay on SK-MEL-2 was > 100 µM (inactive) in each case. In addition, the GI50 with TK-10, in the assay on Malme-3M, with HCC 2998, in the assay with A498, with OVCAR-8 and in the assay with K562 was > 100 µM (inactive) throughout. The GI50 in the assay with SN12C is > 100 µM (inactive); in the assay on SF-539, > 100 µM (inactive); with EKVX, > 100 µM (inactive); with HOP-92 it was 0.109 µM (active); in the assay on ACHN, > 100 µM (inactive); in the assay with HL-60 it was > 100 µM (inactive). Moreover, the GI50 with NCI-H226 and in the assay with KM12 was > 100 µM (inactive) throughout.

On to `Cc1cccc(N(CC(=O)O)S(=O)(=O)c2ccccc2)c1`, for which the GI50 with SK-MEL-5, with UACC-257, in the assay with RPMI-8226, in the assay on OVCAR-4, in the assay on SNB-19 and in the assay with SK-MEL-2 was > 100 µM (inactive) throughout. Besides, the GI50 in the assay on TK-10, in the assay on Malme-3M, with HCC 2998, in the assay with A498, in the assay with OVCAR-8 and with K562 was > 100 µM (inactive) each time. The GI50 with SN12C, in the assay with SF-539, with EKVX, with HOP-92, in the assay with ACHN and in the assay with HL-60 was > 100 µM (inactive) in each case. The GI50 in the assay on NCI-H226 and in the assay with KM12 was > 100 µM (inactive) throughout.

`Cc1ccc2c(O)cc(-c3ccc(Cl)cc3)nc2n1`: the GI50 in the assay with SK-MEL-5 is 3.47 µM (inactive); with UACC-257, 15.6 µM (inactive); in the assay with RPMI-8226 it was 1.87 µM (inactive); in the assay on OVCAR-4, 15.2 µM (inactive); with SNB-19, 6.97 µM (inactive); in the assay with SK-MEL-2, 3.98 µM (inactive). Also, the GI50 with TK-10 is 21.2 µM (inactive); with Malme-3M, 3.74 µM (inactive); in the assay with HCC 2998, 6.65 µM (inactive); in the assay with A498, 9.73 µM (inactive); in the assay with OVCAR-8, 9.33 µM (inactive); in the assay on K562, 2.58 µM (inactive). The GI50 is 4.38 µM (inactive) in the assay on SN12C; 5.16 µM (inactive) in the assay on SF-539; 18 µM (inactive) in the assay on EKVX; 13.6 µM (inactive) in the assay with HOP-92; 8.07 µM (inactive) with ACHN; 2.69 µM (inactive) in the assay with HL-60. The GI50 with NCI-H226 was 14.9 µM (inactive); in the assay on KM12 it was 4.57 µM (inactive).

The record behind these values is ChEMBL document CHEMBL1201862, “PubChem BioAssay data set” (2004).
